{"source": "patent US8703956B2", "about": "“Amorphous (5-fluoro-2-methyl-3-quinolin-2-ylmethyl-indol-1-yl)-acetic acid” (Atopix Therapeutics Limited, priority 2011, dated 2014)", "key": {"[1]": {"test": "Solubility in aqueous solutions (Example 10)", "type": "physicochemical", "details": "for Solubility in water: Table 12; for Increase in water solubility: relative to Compound 1 as-received (0.0006 mg/mL); for solubility: thermodynamic from solid, read-out: Compound 1 Solubility", "description": "Crystalline and amorphous Compound 1/polymer formulation solubility was determined in different aqueous media (Tables 8A and 8B).\nAs mentioned earlier, the high solubility of the Compound 1 sodium salt most probably resulted from the conversion of the Compound 1 to its ionized form. In relation to crystalline Compound 1 (as-received sample), formulations containing amorphous form (Tables 11A and 11B) were more soluble than crystalline form under all studied conditions."}, "[2]": {"test": "Solubility screening in solvents (Example 2)", "type": "physicochemical", "details": "thermodynamic from solid, read-out: Compound 1 Solubility; for solubility at 12 h: 12 h room temperature", "description": "Before carrying out spray drying experiments, a solvent screening was performed to determine potential solvent that will allow sufficient concentration of Compound 1 in spray drying solution. Approximately 50 mg of Compound 1 was added to 100 mL of each evaluated solvent until visual observation of solution saturation. […]"}, "[3]": {"test": "Solubility in USP simulated gastric and intestinal fluids (Example 11)", "type": "physicochemical", "details": "SGF pH 1.2 and SIF pH 6.8, 37° C.", "description": "The solubilization profile was obtained of various compositions in USP Simulated Gastric Fluid (SGF) and USP Simulated Intestinal Fluid (SIF) with pH 1.2 and 6.8, respectively. […] The concentration of the solution was based on the hypothesis that the test should simulate a dissolution test for a 100 mg dose strength tablet or capsule in 900 ml of dissolution media.\nThe solubility was tested for the crystalline compound 1 with a purity of 98.9%, and for the amorphous compositions of Examples 6M and 6O (Lots 031 and 033). The following procedure was followed: • A shaking water bath was filled and water temperature left to equilibrate to 37° C. for 24 hours. • USP simulated gastric fluid was prepared as described in the UPS 31, Solutions: Test solutions. • USP simulated intestinal fluid was prepared as described in the UPS 31, Solutions: Test solutions. • The equivalent of 12.5 mg of Compound 1 was weighed and transferred into a 125 mL Erlenmeyer flask, with 100 mL of medium. […]\nThe amount of dissolved material was determined with respect to a standard and is reported as the percentage of material dissolved with respect to the standard as well as in absolute mg/ml."}, "animal models of asthma": {"test_system": "animal models of asthma", "details": "in vivo; cited from earlier work"}, "[4]": {"test_system": "moderate persistent asthma", "details": "Barnes et al., European Respiratory Journal 34, suppl. 53, 2009; cited from earlier work"}}, "note": "Counter-ions that a name gives are not always drawn. Like-named read-outs stand apart in the source and are kept apart here.", "data": [{"smiles": "Cc1c(Cc2ccc3ccccc3n2)c2cc(F)ccc2n1CC(=O)[O-].[Na+]", "note": "[Lot 002]", "values": [{"measurement": "Solubility in water", "setting": "[1]", "value": 16870, "unit": "µg/mL"}, {"measurement": "Compound 1 Solubility", "setting": "[1]; Water", "value": 16870, "unit": "µg/mL"}, {"measurement": "Compound 1 Solubility", "setting": "[1]; Water + 1% SDS", "value": ">17000", "unit": "µg/mL"}, {"measurement": "Compound 1 Solubility", "setting": "[1]; Water + 1% Tween 20", "value": ">22000", "unit": "µg/mL"}, {"measurement": "Compound 1 Solubility", "setting": "[1]; Water + 1% Tween 80", "value": ">14000", "unit": "µg/mL"}, {"measurement": "Compound 1 Solubility", "setting": "[1]; pH 1.0", "value": 9.1, "unit": "µg/mL"}, {"measurement": "Compound 1 Solubility", "setting": "[1]; pH 4.5", "value": 5, "unit": "µg/mL"}, {"measurement": "Compound 1 Solubility", "setting": "[1]; pH 6.8 + 1% HTAB", "value": 3597, "unit": "µg/mL"}, {"measurement": "Compound 1 Solubility", "setting": "[1]; pH 6.8 + 1% Tween 20", "value": 162.3, "unit": "µg/mL"}, {"measurement": "Compound 1 Solubility", "setting": "[1]; pH 6.8 + 1% Tween 80", "value": 226, "unit": "µg/mL"}, {"measurement": "Compound 1 Solubility", "setting": "[1]; pH 6.8 K", "value": 0.2, "unit": "µg/mL"}, {"measurement": "Compound 1 Solubility", "setting": "[1]; pH 6.8 Na", "value": 0.6, "unit": "µg/mL"}, {"measurement": "Compound 1 Solubility", "setting": "[1]; pH 8.0 K", "value": 2740, "unit": "µg/mL"}, {"measurement": "Compound 1 Solubility", "setting": "[1]; pH 8.0 Na", "value": 1782, "unit": "µg/mL"}, {"measurement": "Increase in water solubility", "setting": "[1]", "value": 2811667, "unit": "%"}]}, {"smiles": "Cc1c(Cc2ccc3ccccc3n2)c2cc(F)ccc2n1CC(=O)O", "note": "[Compound 1, (5-Fluoro-2-methyl-3-quinolin-2-ylmethyl-indol-1-yl)-acetic acid]", "values": [{"measurement": "solubility", "setting": "[2]; aqueous buffer, Sodium hydroxide 0.5N, at 45° C.", "value": "> 90000", "unit": "µg/mL"}, {"measurement": "solubility at 12 h", "setting": "[2]; aqueous buffer, Tris(hydroxymethyl) aminoethane (1% w/v)", "value": "< 500", "unit": "µg/mL"}, {"measurement": "solubility at 12 h", "setting": "[2]; aqueous with cosolvent or surfactant or cyclodextrin, DMSO/H2O (50/50 v/v)", "value": "< 500", "unit": "µg/mL"}, {"measurement": "solubility at 12 h", "setting": "[2]; aqueous with cosolvent or surfactant or cyclodextrin, DMSO/H2O (75/25 v/v)", "value": "2000 to 2500", "unit": "µg/mL"}, {"measurement": "solubility at 12 h", "setting": "[2]; aqueous with cosolvent or surfactant or cyclodextrin, Hexadecyltrimethylammonium (0.05% w/v)", "value": "< 500", "unit": "µg/mL"}, {"measurement": "solubility at 12 h", "setting": "[2]; aqueous with cosolvent or surfactant or cyclodextrin, Sodium dodecyl sulfate (2% w/v)", "value": "< 500", "unit": "µg/mL"}, {"measurement": "solubility at 12 h", "setting": "[2]; aqueous with cosolvent or surfactant or cyclodextrin, Span 80 (1% v/v)", "value": "< 500", "unit": "µg/mL"}, {"measurement": "solubility at 12 h", "setting": "[2]; aqueous with cosolvent or surfactant or cyclodextrin, Tween 80 (1% v/v)", "value": "< 500", "unit": "µg/mL"}, {"measurement": "solubility at 12 h", "setting": "[2]; organic solvent or mixture, Carbon tetrachloride", "value": "< 500", "unit": "µg/mL"}, {"measurement": "solubility at 12 h", "setting": "[2]; organic solvent or mixture, Chloroform", "value": "< 500", "unit": "µg/mL"}, {"measurement": "solubility at 12 h", "setting": "[2]; organic solvent or mixture, DMSO/DCM (50/50 v/v)", "value": "1000 to 1500", "unit": "µg/mL"}, {"measurement": "solubility at 12 h", "setting": "[2]; organic solvent or mixture, DMSO/DCM (75/25 v/v)", "value": "2500 to 3000", "unit": "µg/mL"}, {"measurement": "solubility at 12 h", "setting": "[2]; organic solvent or mixture, DMSO/Ethanol (50/50 v/v)", "value": "500 to 1000", "unit": "µg/mL"}, {"measurement": "solubility at 12 h", "setting": "[2]; organic solvent or mixture, DMSO/Ethanol (75/25 v/v)", "value": "500 to 1000", "unit": "µg/mL"}, {"measurement": "solubility at 12 h", "setting": "[2]; organic solvent or mixture, Dichloromethane (DCM)", "value": "< 500", "unit": "µg/mL"}, {"measurement": "solubility at 12 h", "setting": "[2]; organic solvent or mixture, Dimethyl sulfoxide (DMSO)", "value": "5500 to 6000", "unit": "µg/mL"}, {"measurement": "solubility at 12 h", "setting": "[2]; organic solvent or mixture, Toluene", "value": "< 500", "unit": "µg/mL"}, {"measurement": "solubility at 12 h", "setting": "[2]; Purified water", "value": "< 500", "unit": "µg/mL"}, {"measurement": "Solubility in water", "setting": "[1]", "value": 0.6, "unit": "µg/mL"}, {"measurement": "Compound 1 Solubility", "setting": "[1]; Water", "value": 0.6, "unit": "µg/mL"}, {"measurement": "solubility", "setting": "[1]; aqueous medium pH 1.0, pH 1, simulated gastric fluid, pH 1.0", "value": 2.1, "unit": "µg/mL"}, {"measurement": "Compound 1 Solubility", "setting": "[1]; pH 4.5", "value": 1.9, "unit": "µg/mL"}, {"measurement": "Compound 1 Solubility", "setting": "[1]; pH 6.8 K", "value": 0.3, "unit": "µg/mL"}, {"measurement": "Compound 1 Solubility", "setting": "[1]; pH 8.0 K", "value": 0.8, "unit": "µg/mL"}, {"measurement": "Compound 1 Solubility", "setting": "[1]; pH 8.0 Na", "value": 0.3, "unit": "µg/mL"}, {"measurement": "solubility in SGF and SIF", "setting": "[3]", "value": "very poor solubility"}, {"measurement": "efficacy in animal models of asthma", "setting": "animal models of asthma", "value": "effective"}, {"measurement": "efficacy in a clinical trial with human asthma patients", "setting": "[4]", "value": "effective"}]}, {"smiles": "Cc1c(Cc2ccc3ccccc3n2)c2cc(F)ccc2n1CC(=O)O", "note": "[Compound 1 sodium salt]", "values": [{"measurement": "Solubility in water", "setting": "[1]", "value": 15370, "unit": "µg/mL"}, {"measurement": "Compound 1 Solubility", "setting": "[1]; Water", "value": 15370, "unit": "µg/mL"}, {"measurement": "solubility", "setting": "[1]; Water + 1% SDS, aqueous with cosolvent or surfactant or cyclodextrin, Water + 1% SDS", "value": "> 30000", "unit": "µg/mL"}, {"measurement": "solubility", "setting": "[1]; Water + 1% Tween 20, aqueous with cosolvent or surfactant or cyclodextrin, Water + 1% Tween 20", "value": "> 26000", "unit": "µg/mL"}, {"measurement": "solubility", "setting": "[1]; Water + 1% Tween 80, aqueous with cosolvent or surfactant or cyclodextrin, Water + 1% Tween 80", "value": "> 21000", "unit": "µg/mL"}, {"measurement": "Compound 1 Solubility", "setting": "[1]; pH 1.0", "value": 3.6, "unit": "µg/mL"}, {"measurement": "Compound 1 Solubility", "setting": "[1]; pH 4.5", "value": 2605, "unit": "µg/mL"}, {"measurement": "solubility", "setting": "[1]; pH 6.8 + 1% HTAB, pH 6.8, aqueous with cosolvent or surfactant or cyclodextrin, pH 6.8 + 1% HTAB", "value": 4110, "unit": "µg/mL"}, {"measurement": "solubility", "setting": "[1]; pH 6.8 + 1% Tween 20, pH 6.8, aqueous with cosolvent or surfactant or cyclodextrin, pH 6.8 + 1% Tween 20", "value": 128, "unit": "µg/mL"}, {"measurement": "solubility", "setting": "[1]; pH 6.8 + 1% Tween 80, pH 6.8, aqueous with cosolvent or surfactant or cyclodextrin, pH 6.8 + 1% Tween 80", "value": 3220, "unit": "µg/mL"}, {"measurement": "Compound 1 Solubility", "setting": "[1]; pH 6.8 K", "value": 8554, "unit": "µg/mL"}, {"measurement": "solubility", "setting": "[1]; pH 6.8 Na (sodium buffer), pH 6.8, aqueous buffer, pH 6.8 Na", "value": 2490, "unit": "µg/mL"}, {"measurement": "Compound 1 Solubility", "setting": "[1]; pH 8.0 K", "value": 5571, "unit": "µg/mL"}, {"measurement": "Compound 1 Solubility", "setting": "[1]; pH 8.0 Na", "value": 1744, "unit": "µg/mL"}, {"measurement": "Increase in water solubility", "setting": "[1]", "value": 2561667, "unit": "%"}]}]}
